Results as given in ChEMBL document CHEMBL2429805, “Studies toward the development of new silicon-containing building blocks for the direct (18)F-labeling of peptides” (J Med Chem, 2013).

How the values were obtained:
Bone = test: Biodistribution in bone of NMRI nude mouse xenografted with human PC3 cells at 8.3 to 15.3 MBq after 60 to 105 mins by PET imaging analysis; format: ADME, organism-based, Bone element, PC-3; conditions: in vivo
Mus musculus [1] = test: Biodistribution in urinary bladder of NMRI nude mouse xenografted with human PC3 cells at 8.3 to 15.3 MBq after 60 to 105 mins by PET imaging analysis; format: ADME, organism-based, PC-3; conditions: in vivo
Mus musculus [2] = test: Biodistribution in abdominal region of NMRI nude mouse xenografted with human PC3 cells at 8.3 to 15.3 MBq after 60 to 105 mins by PET imaging analysis; format: ADME, organism-based, Abdomen, PC-3; conditions: in vivo
[3] = Ratio of biodistribution in tumor to blood of NMRI nude mouse xenografted with human PC3 cells at 4.8 to 10.5 MBq after 117 mins by gamma-counting analysis in presence of bombesin; format: ADME, organism-based, PC-3; conditions: tumour, 1.95 h
Spleen [4] = test: Biodistribution in spleen of NMRI nude mouse xenografted with human PC3 cells at 4.8 to 10.5 MBq after 117 mins by gamma-counting analysis in presence of bombesin; format: ADME, organism-based, PC-3; conditions: in vivo, 1.95 h
Mus musculus [5] = test: Biodistribution in gallbladder of NMRI nude mouse xenografted with human PC3 cells at 4.8 to 10.5 MBq after 117 mins by gamma-counting analysis in presence of bombesin; format: ADME, organism-based, Gall bladder, PC-3; conditions: in vivo, 1.95 h
Lung [6] = test: Biodistribution in lung of NMRI nude mouse xenografted with human PC3 cells at 4.8 to 10.5 MBq after 117 mins by gamma-counting analysis in presence of bombesin; format: ADME, organism-based, PC-3; conditions: in vivo, 1.95 h
Intestine [7] = test: Biodistribution in intestine of NMRI nude mouse xenografted with human PC3 cells at 4.8 to 10.5 MBq after 117 mins by gamma-counting analysis in presence of bombesin; format: ADME, organism-based, PC-3; conditions: in vivo, 1.95 h
Kidney [8] = test: Biodistribution in kidney of NMRI nude mouse xenografted with human PC3 cells at 4.8 to 10.5 MBq after 117 mins by gamma-counting analysis in presence of bombesin; format: ADME, organism-based, PC-3; conditions: in vivo, 1.95 h
Liver [9] = test: Biodistribution in liver of NMRI nude mouse xenografted with human PC3 cells at 4.8 to 10.5 MBq after 117 mins by gamma-counting analysis in presence of bombesin; format: ADME, organism-based, PC-3; conditions: in vivo, 1.95 h
Mus musculus [10] = test: Biodistribution in prostate of NMRI nude mouse xenografted with human PC3 cells at 4.8 to 10.5 MBq after 117 mins by gamma-counting analysis in presence of bombesin; format: ADME, organism-based, Prostate gland, PC-3; conditions: in vivo, 1.95 h
Pancreas [11] = test: Biodistribution in pancreas of NMRI nude mouse xenografted with human PC3 cells at 4.8 to 10.5 MBq after 117 mins by gamma-counting analysis in presence of bombesin; format: ADME, organism-based, PC-3; conditions: in vivo, 1.95 h
Blood [12] = test: Biodistribution in blood of NMRI nude mouse xenografted with human PC3 cells at 4.8 to 10.5 MBq after 117 mins by gamma-counting analysis in presence of bombesin; format: ADME, organism-based, PC-3; conditions: in vivo, 1.95 h
[13] = Ratio of biodistribution in tumor to blood of NMRI nude mouse xenografted with human PC3 cells at 8.3 to 15.3 MBq after 117 mins by gamma-counting analysis; format: ADME, organism-based, PC-3; conditions: tumour, 1.95 h
Mus musculus [14] = test: Biodistribution in tumor of NMRI nude mouse xenografted with human PC3 cells at 4.8 to 10.5 MBq after 117 mins by gamma-counting analysis in presence of bombesin; format: ADME, organism-based, Neoplasm, PC-3; conditions: in vivo, 1.95 h
Spleen [15] = test: Biodistribution in spleen of NMRI nude mouse xenografted with human PC3 cells at 8.3 to 15.3 MBq after 117 mins by gamma-counting analysis; format: ADME, organism-based, PC-3; conditions: in vivo, 1.95 h
Mus musculus [16] = test: Biodistribution in gallbladder of NMRI nude mouse xenografted with human PC3 cells at 8.3 to 15.3 MBq after 117 mins by gamma-counting analysis; format: ADME, organism-based, Gall bladder, PC-3; conditions: in vivo, 1.95 h
Lung [17] = test: Biodistribution in lung of NMRI nude mouse xenografted with human PC3 cells at 8.3 to 15.3 MBq after 117 mins by gamma-counting analysis; format: ADME, organism-based, PC-3; conditions: in vivo, 1.95 h
Intestine [18] = test: Biodistribution in intestine of NMRI nude mouse xenografted with human PC3 cells at 8.3 to 15.3 MBq after 117 mins by gamma-counting analysis; format: ADME, organism-based, PC-3; conditions: in vivo, 1.95 h
Kidney [19] = test: Biodistribution in kidney of NMRI nude mouse xenografted with human PC3 cells at 8.3 to 15.3 MBq after 117 mins by gamma-counting analysis; format: ADME, organism-based, PC-3; conditions: in vivo, 1.95 h
Liver [20] = test: Biodistribution in liver of NMRI nude mouse xenografted with human PC3 cells at 8.3 to 15.3 MBq after 117 mins by gamma-counting analysis; format: ADME, organism-based, PC-3; conditions: in vivo, 1.95 h
Mus musculus [21] = test: Biodistribution in prostate of NMRI nude mouse xenografted with human PC3 cells at 8.3 to 15.3 MBq after 117 mins by gamma-counting analysis; format: ADME, organism-based, Prostate gland, PC-3; conditions: in vivo, 1.95 h
Blood [22] = test: Biodistribution in blood of NMRI nude mouse xenografted with human PC3 cells at 8.3 to 15.3 MBq after 117 mins by gamma-counting analysis; format: ADME, organism-based, PC-3; conditions: in vivo, 1.95 h
Pancreas [23] = test: Biodistribution in pancreas of NMRI nude mouse xenografted with human PC3 cells at 8.3 to 15.3 MBq after 117 mins by gamma-counting analysis; format: ADME, organism-based, PC-3; conditions: in vivo, 1.95 h
Mus musculus [24] = test: Biodistribution in tumor of NMRI nude mouse xenografted with human PC3 cells at 8.3 to 15.3 MBq after 117 mins by gamma-counting analysis; format: ADME, organism-based, Neoplasm, PC-3; conditions: in vivo, 1.95 h
Mus musculus [25] = test: Biodistribution in tumor of NMRI nude mouse xenografted with human PC3 cells at 4.8 to 10.5 MBq after 60 to 105 mins by PET imaging analysis in presence of bombesin; format: ADME, organism-based, Neoplasm, PC-3; conditions: in vivo
Mus musculus [26] = test: Biodistribution in tumor of NMRI nude mouse xenografted with human PC3 cells at 8.3 to 15.3 MBq after 60 to 105 mins by PET imaging analysis; format: ADME, organism-based, Neoplasm, PC-3; conditions: in vivo
[27] = Lipophilicity, log D of the compound in 1-octanol/PBS buffer at pH 7.4 after 15 mins by shake flask method; format: physicochemical
[28] = Stability of the compound in PBS buffer up to 2 hrs; format: physicochemical

SMILES: CC(C)C[C@H](NC(=O)C[C@H](O)[C@H](CC(C)C)NC(=O)[C@H](Cc1cnc[nH]1)NC(=O)CN(C)C(=O)[C@@H](NC(=O)[C@H](C)NC(=O)[C@H](Cc1c[nH]c2ccccc12)NC(=O)[C@H](CCC(N)=O)NC(=O)CCCCNC(=O)[C@H](CS(=O)(=O)O)NC(=O)[C@H](CS(=O)(=O)O)NC(=O)Cc1ccc([Si]([18F])(C(C)(C)C)C(C)(C)C)cc1)C(C)C)C(N)=O
- Drug uptake (Bone): Not Active
- Drug uptake (Mus musculus [1]): Active
- Drug uptake (Mus musculus [2]): Active
- Ratio [3]: 1.1
- Drug uptake (Spleen [4]): 0.57 % ID/g
- Drug uptake (Mus musculus [5]): 236 % ID/g
- Drug uptake (Lung [6]): 1.4 % ID/g
- Drug uptake (Intestine [7]): 16 % ID/g
- Drug uptake (Kidney [8]): 2.1 % ID/g
- Drug uptake (Liver [9]): 5.6 % ID/g
- Drug uptake (Mus musculus [10]): 0.7 % ID/g
- Drug uptake (Pancreas [11]): 3.4 % ID/g
- Drug uptake (Blood [12]): 1.17 % ID/g
- Ratio [13]: 2
- Drug uptake (Mus musculus [14]): 1.24 % ID/g
- Drug uptake (Spleen [15]): 0.57 % ID/g
- Drug uptake (Mus musculus [16]): 194 % ID/g
- Drug uptake (Lung [17]): 0.65 % ID/g
- Drug uptake (Intestine [18]): 21 % ID/g
- Drug uptake (Kidney [19]): 1.7 % ID/g
- Drug uptake (Liver [20]): 4.4 % ID/g
- Drug uptake (Mus musculus [21]): 0.37 % ID/g
- Drug uptake (Blood [22]): 0.91 % ID/g
- Drug uptake (Pancreas [23]): 10 % ID/g
- Drug uptake (Mus musculus [24]): 1.8 % ID/g
- Drug uptake (Mus musculus [25]): Active
- Drug uptake (Mus musculus [26]): Active
- logD at 0.25 h [27]: 0.3
- Stability [28]: Stable
